The source of these data is patent US20220017541A1, “INHIBITORS OF ARGINASE” (Black Belt Tx Ltd, priority 2018, published 2022).

One assay concerns the target T1, recombinant human ARG1 (Homo sapiens, UniProt P05089).
T1 construct: purchased R&D System 5868-AR-010
T1 sequence (P05089 1-322): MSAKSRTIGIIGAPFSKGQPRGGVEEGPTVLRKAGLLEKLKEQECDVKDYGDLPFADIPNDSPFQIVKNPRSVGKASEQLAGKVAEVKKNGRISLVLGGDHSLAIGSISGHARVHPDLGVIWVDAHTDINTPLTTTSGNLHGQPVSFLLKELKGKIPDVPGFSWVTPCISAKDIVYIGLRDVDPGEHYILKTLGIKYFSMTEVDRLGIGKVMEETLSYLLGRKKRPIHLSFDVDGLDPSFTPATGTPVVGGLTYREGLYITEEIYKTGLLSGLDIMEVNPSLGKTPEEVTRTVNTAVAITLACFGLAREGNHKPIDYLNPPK
The experiment in a line: Arginase enzymatic assay in vitro, recombinant human ARG1 (colorimetric urea detection). The assay is classed as biochemical. As to conditions: recombinant human arginase 1; read-out: IC50 Inh rhARG1. From the text:
(§1) Arginase catalyzes the hydrolysis of L-arginine into L-ornithine and urea. Urea amount produced by this reaction can be detected using a colorimetric assay and used as an indirect measurement of arginase activity. An adapted protocol from (Baggio, R., et al., J Pharmacol Exp Ther, 1999. 290(3): p. 1409-16) was used for the testing the ability of exemplary compounds of the invention to inhibit arginase enzymes from a variety of sources including recombinant human ARG1 and 2, lysates of human red blood cells (RBC) and intact murine macrophages, as described below.
(§2) Compounds of the invention were prepared from powder as 10 mM stock solutions in DMSO and stored in presence of N2 neutral atmosphere at −80° C. For IC50 determination and just before the assay, exemplary compounds were successively diluted to get the following concentrations: 210, 70, 21, 7, 2.1, 0.7, 0.21, 0.07, 0.021, 0.007, 0.0021 and 0.0007 μM (i.e., final concentrations in the wells of 30, 10, 3, 1, 0.3, 0.1, 0.03, 0.01, 0.003, 0.001, 0.0003, 0.0001 μM).
(§3) Assays were run in clear flat bottom 96-well plates (Nunclon, Cat. No. #167008) adding in each well the following solutions in this order: (1) 10 μl of Tris-HCl solution supplemented with 0.1% bovine serum albumin (BSA) containing 1.563 μg/ml recombinant human ARG1 (R&D System, Cat. No. #5868-AR-010), (2) 30 μl of Tris-HCl buffer containing 10 mM MnCl2 and (3) 10 μL of a pre-dilution of each test article or DMSO (vehicle). Compounds were allowed to interact with the enzyme-cofactor complex pre-incubating the plate at 37° C. for 30 min. To start the reaction, 20 μl of 50 mM L-arginine (Sigma Aldrich Cat. #A5006-100G) were added to each well in exception of the blank reaction (see below). All reactions were allowed to happen for 1 h at 37° C. To detect the urea production, reactions were stopped by adding 200 μl of a mixture of reagent A (4 mM o-phthalaldehyde in 50 mM Boric Acid, 1 M Sulfuric Acid, 0.03% Brij-35 (w/v)) and reagent B (4 mM N-(1-naphthyl)ethylenediamine in 50 mM Boric Acid, 1 M Sulfuric Acid, 0.03% Brij-35 (w/v)) in equal proportion. Color product was developed for 1 h at room temperature (RT) protected from light and then absorbance at 520 nm was measured using a Multifunction Microplate Reader (Synergy 4, Bioteck). Blank reactions were carried out by adding the L-arginine substrate only after the addition of mixture A-B. All reactions were carried out in duplicates.
(§4) The inhibition of urea production was calculated subtracting the absorbance from the blank reaction (zero enzymatic urea production) to the absorbance from all reactions and it was expressed as the percentage of the absorbance from the reaction containing the test article with respect to the absorbance from vehicle reaction (maximum of urea production).

The target in a further assay is T2, recombinant human ARG2 (Homo sapiens, UniProt P78540).
T2 construct: purchased BPS Bioscience 71659
T2 sequence (P78540 23-354): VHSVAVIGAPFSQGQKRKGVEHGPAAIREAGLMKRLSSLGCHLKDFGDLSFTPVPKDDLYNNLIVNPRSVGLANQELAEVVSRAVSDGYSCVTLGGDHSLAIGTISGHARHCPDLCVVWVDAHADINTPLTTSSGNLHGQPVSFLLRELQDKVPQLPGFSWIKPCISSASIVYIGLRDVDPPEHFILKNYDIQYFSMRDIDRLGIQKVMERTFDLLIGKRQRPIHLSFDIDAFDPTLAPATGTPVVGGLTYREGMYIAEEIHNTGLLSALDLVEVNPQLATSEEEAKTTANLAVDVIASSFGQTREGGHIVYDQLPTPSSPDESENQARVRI
The experiment in a line: Arginase enzymatic assay in vitro, recombinant human ARG2 (colorimetric urea detection). The assay is classed as biochemical. As to conditions: recombinant human arginase 2; read-out: IC50 Inh rhARG2.
Text: as §1, §2, §3, §4
For testing inhibitory activity over recombinant human arginase II, 10 μl of Tris-HCl solution supplemented with 0.1% BSA containing 1.5 μg/ml recombinant human ARG2 (BPS Bioscience, Cat. No. #71659) was used instead of ARG1.

In assay [1] the target is T3, native ARG1 enzyme in lysates of RBC (Homo sapiens, UniProt P05089).
T3 construct: native ARG1 enzyme in lysates of RBC; from tissue; host or cells: human red blood cell lysates from healthy donors
T3 sequence (P05089 1-322): T1 sequence (P05089 1-322)
The experiment in a line: Arginase enzymatic assay in RBC lysates from healthy donors. The assay is classed as biochemical. As to conditions: human red blood cell lysates; read-out: IC50 Inh RBC.
Text: as §1, §2, §3, §4
For testing inhibitory activity over RBC lysates from healthy donors, 10 μl of Tris-HCl solution supplemented with 0.1% BSA containing 160 μg RBC lysates per well was used instead.

Assay [2] deals with T4, arginase activity in intact BMM-M2 cells (Mus musculus, UniProt Q61176).
T4 construct: endogenous in cells; host or cells: bone-marrow derived macrophages from male C57BL/6 mice, polarised to M2 with IL-4
T4 sequence (Q61176 1-323): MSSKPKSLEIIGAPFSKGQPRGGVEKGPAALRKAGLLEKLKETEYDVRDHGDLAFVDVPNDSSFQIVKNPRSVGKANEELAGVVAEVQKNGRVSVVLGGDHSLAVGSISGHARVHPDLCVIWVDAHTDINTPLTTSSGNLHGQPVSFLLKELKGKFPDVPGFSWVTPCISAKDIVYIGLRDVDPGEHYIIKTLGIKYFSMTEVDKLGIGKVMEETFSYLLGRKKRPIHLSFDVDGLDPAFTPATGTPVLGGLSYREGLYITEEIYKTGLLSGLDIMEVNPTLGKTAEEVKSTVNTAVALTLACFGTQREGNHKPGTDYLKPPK
Description: Cell-based arginase assay: urea production by cultured BMM-M2 cells. As to conditions: 10 μM test compound, 24 h; for inhibition at 10 µM: read-out: Inh. urea production @10 μM (%). The method, then:
Murine bone-marrow derived macrophages (BMM) represent a convenient in vitro model that enables differentiation of these cells towards M1 or M2 macrophages. Briefly, male C57BL/6 mice 7-8 weeks old were euthanized by carbon dioxide asphyxiation. Femur and tibiae bones were removed under aseptic conditions and collected in a plate containing sterile ice-cold PBS 1×. After sterilization of bones in 70% ethanol during 1 min, bones were placed into a clean Petri dish containing fresh sterile ice-cold PBS 1×. The ends of each bone were cut and the marrow cavity was flushed using forceps and syringes filled with pre-warmed complete α-MEM growing medium (α-MEM without red phenol (Life Technologies, Cat. No. #41061-029) supplemented with 10% FBS, penicillin and streptomycin). Bone marrow (BM) cells were harvested in a 15 ml clean tube and centrifuged at 400 g for 8 min at RT. Supernatant was discarded and BM pellet was re-suspended in 5 ml Ammonium-Chloride-Potassium (ACK) buffer for 5 minutes at RT to lysis RBC. BM cell suspension was centrifuged at 400 g for 8 min at RT. Supernatant was discarded and BM cell pellet was re-suspended in complete α-MEM growing medium and passed through a 70 μm cell restrainer to eliminate solid contaminates and cellular aggregates. BM cells were seeded in 8 ml of complete α-MEM growing medium supplemented with 100 ng/ml recombinant mouse M-CSF (R&D Systems, Cat. No. #416-ML-050) in 100-mm dishes. BM cells were cultured overnight to get rid of contaminating stromal cells in a humidified incubator with 5% CO2 at 37° C. At the following day, non-adherent cells were collected in a clean 15-ml tube and centrifuged at 400 g for 8 min at RT. Cell pellet was re-suspended in complete α-MEM growing medium and counted using a hemocytometer Neubauer's chamber. Hematopoietic precursor cells were differentiated into BMM in presence of complete α-MEM growing medium supplemented 50 ng/ml M-CSF for 3 days. Finally to polarize BMM towards M2 phenotype, cells were incubated in presence 20 ng/ml of recombinant mouse IL-4 (R&D Systems, Cat. No. #404-ML-010) added to fresh complete α-MEM growing medium supplemented 50 ng/ml M-CSF for 24 h.
At the day of the experiment, BMM-M2 were treated for 24 h with vehicle (DMSO) or compounds of the invention at 1 and 10 μM prepared in fresh complete α-MEM growing medium supplemented 50 ng/ml M-CSF, 20 ng/ml IL-4 and 10 mM L-arginine (Cat. No. #A5006, Sigma Aldrich). At the next day, 70 μl aliquots of each treated culture media (supernatants) were transferred into a clear 96-well plate. Measurements of urea produced by BMM-M2 were performed using the adapted protocol detailed in Example B1. Wells without BMM-M2 containing only treatment media (vehicle) were used to determine the zero cell-derived urea production (blank). All treatments were carried out in triplicates.
The inhibition of urea production was calculated subtracting the absorbance from the blank to the absorbance from all treatments and it was expressed as the percentage of the absorbance from the reaction containing the test article treatment with respect to the absorbance from vehicle treatment (maximum of urea production).

As usually defined, the IC50 is the midpoint of a concentration-inhibition curve. With `NC(CCCCB(O)O)(C(=O)O)C1CCN(C2CCCc3cccnc32)CC1` (single isomer, unassigned) [Compound 32, 2-amino-6-borono-2-(1-(5,6,7,8-tetrahydroquinolin-8-yl)piperidin-4-yl)hexanoic acid], the IC50 (on recombinant human ARG1; on recombinant human ARG2; in assay [1]) was below 500 nM each time.

Consider `CC(c1ccc(F)c(Cl)c1)N1CCC(C(N)(CCCCB(O)O)C(=O)O)CC1` (single isomer, unassigned) [Compound 89, 2-amino-6-borono-2-(1-(1-(3-chloro-4-fluorophenyl)ethyl)piperidin-4-yl)hexanoic acid], for which the results for the IC50 at recombinant human ARG1 and at recombinant human ARG2 were below 500 nM and 500 to 5000 nM, respectively. Besides, in assay [2], the “Inh. urea production @10 μM (%)” value is listed as “++ (25% < % inhibition < 15% at 10 μM test compound)”.

As to `CC(c1c(Cl)cccc1Cl)N1CCC(C(N)(CCCCB(O)O)C(=O)O)CC1` (single isomer, unassigned) [Compound 91, 2-amino-6-borono-2-(1-(1-(2,6-dichlorophenyl)ethyl)piperidin-4-yl)hexanoic acid], the IC50 at recombinant human ARG1 is below 500 nM; at recombinant human ARG2, 500 to 5000 nM. Further, in assay [2], the inhibition at 10 µM is above 25%.

For `CC(c1c(F)cccc1F)N1CCC(C(N)(CCCCB(O)O)C(=O)O)CC1` (single isomer, unassigned) [Compound 92, 2-amino-6-borono-2-(1-(1-(2,6-difluorophenyl)ethyl)piperidin-4-yl)hexanoic acid], the concentration for half-maximal inhibition (IC50) at recombinant human ARG1 and on recombinant human ARG2 was 500 to 5000 nM throughout. For the same compound, the inhibition at 10 µM in assay [2] was below 15%.

`NC(CCCCB(O)O)(C(=O)O)C1CCN(C2CCCc3cc(Cl)ccc32)CC1` (stereo not drawn) [Compound 16, 2-amino-6-borono-2-(1-(6-chloro-1,2,3,4-tetrahydronaphthalen-1-yl)piperidin-4-yl)hexanoic acid]: the IC50 (at recombinant human ARG1; at recombinant human ARG2; in assay [1]) was below 500 nM in each case.

Take `NC(CCCCB(O)O)(C(=O)O)C1CCN(C2CCCc3cc(Cl)ccc32)C1` (stereo not drawn) [Compound 48, 2-amino-6-borono-2-[1-(6-chlorotetralin-1-yl)pyrrolidin-3-yl]hexanoic acid]: the IC50 on recombinant human ARG1 and at recombinant human ARG2 was 500 to 5000 nM each time. Further, in assay [2], the inhibition at 10 µM was below 15%.

Consider `NC(=O)C(N)(CCCCB(O)O)C1CCN(C2CCc3cc(Cl)ccc32)CC1` (stereo not drawn) [Compound 81, (5,6-diamino-5-(1-(5-chloro-2,3-dihydro-1H-inden-1-yl)piperidin-4-yl)-6-oxohexyl)boronic acid], for which the IC50 on recombinant human ARG1 was 500 to 5000 nM; at recombinant human ARG2, 500 to 5000 nM; in assay [1], below 500 nM.

On to `NC(CCCCB(O)O)(C(=O)O)C1CCN(C2CCc3cc(Cl)ccc32)C1` (stereo not drawn) [Compound 82, 2-amino-6-borono-2-[1-(5-chloroindan-1-yl)pyrrolidin-3-yl]hexanoic acid], for which the IC50 is below 500 nM at recombinant human ARG1 and 500 to 5000 nM on recombinant human ARG2. Besides, the inhibition at 10 µM in assay [2] is above 25%.
